# Measurements published in patent US20250222146A1, “Radiopharmaceuticals Targeting Somatostatin Receptor 2 and Uses Thereof” (RayzeBio, Inc., priority 2023, published 2025).
# Numbered stars: 1 amine (or outer) side, 2 acyl side, 3 side chain; on linkers, the order of the positions; unused ones are H or OH. Square brackets hold non-standard residues; d marks the D form. Side chains are listed from the residue outwards. Peptide text beside a SMILES is read from it. * marks the point of attachment. ξ: configuration not given here. DOTA(Lu)NH(CH2)6NHCOCH2 = O=C(CN1CCN2CCN3CCN(CC1)CC(=O)[O][Lu]([O]C(=O)C2)[O]C(=O)C3)NCCCCCCNC(=O)C*; DOTA(Lu) = O=C1CN2CCN3CCN(CC(=O)*)CCN(CC2)CC(=O)[O][Lu]([O]1)[O]C(=O)C3; X4 = C[C@@H](c1ccccc1)[C@H](N[*:1])C(=O)[*:2]; ξDihydroorotoyl = O=C1CC(C(=O)*)NC(=O)N1; Phe(4-NH2) = Nc1ccc(C[C@H](N)C(=O)O)cc1; 3Pal = N[C@@H](Cc1cccnc1)C(=O)O; 4Pal = N[C@@H](Cc1ccncc1)C(=O)O; NMeOrn = CN[C@@H](CCCN)C(=O)O; NMehCys = CN[C@@H](CCS)C(=O)O; NMeK = CN[C@@H](CCCCN)C(=O)O; NMeC = CN[C@@H](CS)C(=O)O; NMeA = CN[C@@H](C)C(=O)O; Ahx = NCCCCCC(=O)O
# Molecular target: SSTR2 (Homo sapiens, UniProt P30874)
# Sequence (P30874 whole entry): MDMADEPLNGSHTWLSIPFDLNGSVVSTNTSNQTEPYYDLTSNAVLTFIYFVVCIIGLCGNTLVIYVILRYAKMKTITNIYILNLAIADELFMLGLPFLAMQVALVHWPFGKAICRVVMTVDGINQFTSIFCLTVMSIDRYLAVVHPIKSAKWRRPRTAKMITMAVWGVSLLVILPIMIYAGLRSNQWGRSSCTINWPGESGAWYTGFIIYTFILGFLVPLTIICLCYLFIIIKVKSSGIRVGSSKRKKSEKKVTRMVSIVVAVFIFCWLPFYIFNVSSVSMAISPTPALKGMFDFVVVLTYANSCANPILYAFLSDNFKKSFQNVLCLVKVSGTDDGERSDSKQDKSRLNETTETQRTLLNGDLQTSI
# Experiment: SSTR binding affinity by radioligand binding competition assay ([125I]-Tyr11-Somatostatin, membrane extracts)
# Conditions: SSTR2 Ki, radioligand competition, [125I]-Tyr11-Somatostatin 0.1 nM, membrane extracts; Ki from IC50 by Cheng Prusoff
# Procedure: Macrocyclic peptides in this invention were tested for binding to SSTR protein by a radioligand binding competition assay. For radioligand binding assay, competition binding is performed in duplicate in the wells of a 96 well plate containing binding buffer (HEPES 25 mM pH 7.4, MgCl2 5 mM, CaCl2 1 mM, BSA 0.5%, Saponine 10 μg/ml)), membrane extracts (0.6 μg protein/well), radiotracer ([125I]-Tyr11-Somatostatin, Perkin Elmer NEX389) and test compound. Nonspecific binding is determined by co-incubation with 200-fold excess of cold competitor (SST28). The samples are incubated in a final volume of 0.1 ml for 60 min at room temperature and then filtered over UniFilter-96 GF/C (Revvity 6055690) filter plates. Filters are washed six times with 0.5 ml of ice-cold washing buffer (HEPES 25 mM pH 7.4, MgCl2 5 mM, CaCl2 1 mM) and 50 μl of Microscint 20 (Packard) are added in each well. The plates are incubated 15 min on an orbital shaker and then counted with a TopCount™ for 1 min/well. For IC50 to Ki determination, the Cheng Prusoff equation is used: Ki=IC50/(1+ [tracer]/Kd). [Tracer] is 0.1 nM as mentioned above.
row,SMILES,Ki
1,CC(C)[C@@H]1NC(=O)[C@H](CCCCN)NC(=O)[C@@H](Cc2c[nH]c3ccccc23)NC(=O)[C@H](Cc2ccc(O)cc2)NC(=O)[C@H](CCCCNC(=O)CCCCCNC(=O)CN2CCN3CCN4CCN(CC2)CC(=O)[O][Lu]([O]C(=O)C3)[O]C(=O)C4)N(C)C(=O)[C@H](Cc2ccccc2)NC1=O [RB-0002670] (cyclo(F[NMeK]([Ahx-DOTA(Lu)])Y[dW]KV)),< 1 nM
2,CC(C)[C@@H]1NC(=O)[C@H](CCCCN)NC(=O)[C@@H](Cc2c[nH]c3ccccc23)NC(=O)[C@H](Cc2ccc(O)cc2)NC(=O)[C@H](CSCC(=O)NCCCCCCNC(=O)CN2CCN3CCN4CCN(CC2)CC(=O)[O][Lu]([O]C(=O)C3)[O]C(=O)C4)N(C)C(=O)[C@H](Cc2ccccc2)NC1=O [RB-0002674] (cyclo(F[NMeC](DOTA(Lu)NH(CH2)6NHCOCH2)Y[dW]KV)),1 to 3.33 nM

# Same assay, conditions: radioligand competition, [125I]-Tyr11-Somatostatin 0.1 nM, membrane extracts; Ki from IC50 by Cheng Prusoff; read-out: SSTR2 Ki
row,SMILES,Ki
1,C[C@@H](O)[C@@H]1NC(=O)[C@H](CC2CCNCC2)NC(=O)[C@@H]([C@@H](C)c2c[nH]c3ccccc23)NC(=O)[C@H](Cc2ccc(O)cc2)NC(=O)[C@H](CCCCNC(=O)CCC2C(=O)[O][Ga]3[O]C(=O)CN4CCN(CCN2CC4)CC(=O)[O]3)N(C)C(=O)[C@H](Cc2ccccc2)NC1=O (mixture of isomers) [RB-0006285],1 to 3.33 nM
2,C[C@@H](O)[C@@H]1NC(=O)[C@H](CN2CCNCC2)NC(=O)[C@@H]([C@@H](C)c2c[nH]c3ccccc23)NC(=O)[C@H](Cc2ccc(O)cc2)NC(=O)[C@H](CCCCNC(=O)CCC2C(=O)[O][Ga]3[O]C(=O)CN4CCN(CCN2CC4)CC(=O)[O]3)N(C)C(=O)[C@H](Cc2ccccc2)NC1=O (mixture of isomers) [RB-0006417],1 to 3.33 nM
3,CC(C)[C@@H]1NC(=O)[C@H](CCCCN)NC(=O)[C@@H](Cc2c[nH]c3ccccc23)NC(=O)[C@H](Cc2ccc(O)cc2)NC(=O)[C@H](CCCNC(=O)CCCCCNC(=O)CN2CCN3CCN4CCN(CC2)CC(=O)[O][Lu]([O]C(=O)C3)[O]C(=O)C4)N(C)C(=O)[C@H](Cc2ccccc2)NC1=O [RB-0002672] (cyclo(F[NMeOrn]([Ahx-DOTA(Lu)])Y[dW]KV)),1 to 3.33 nM
4,"CCN(C)CC(=O)[O][Lu]1[O]C(=O)CN(C)CCN(CCN(CC)CC(=O)NCCCCCCNC(=O)CCC[C@H]2C(=O)N[C@@H](CC3=CC=C(O)C=C3)C(=O)N[C@H](CC3=CNC4=C3C=CC=C4)C(=O)N[C@@H](CCCCN)C(=O)N[C@@H](C(C)C)C(=O)N[C@@H](CC3=CC=CC=C3)C(=O)N2C)CC(=O)[O]1 [RB-0002680] (HELM PEPTIDE1{F.[CN([C@@H](CCCC(=O)[*:3])C(=O)[*:2])[*:1]].Y.[dW].K.V}|CHEM1{[CCN(C)CC(=O)[O][Lu]1[O]C(=O)CN(C)CCN(CCN(CC)CC(=O)NCCCCCCN[*:1])CC(=O)[O]1]}$PEPTIDE1,CHEM1,2:R3-1:R1|PEPTIDE1,PEPTIDE1,1:R1-6:R2$$$V2.0)",1 to 3.33 nM
5,C[C@@H](O)[C@@H]1NC(=O)[C@H](CCCCN)NC(=O)[C@@H](Cc2c[nH]c3ccccc23)NC(=O)[C@H](Cc2cccnc2)NC(=O)[C@H](CSCC(=O)NCCCCCCNC(=O)CN2CCN3CCN4CCN(CC2)CC(=O)[O][Lu]([O]C(=O)C3)[O]C(=O)C4)N(C)C(=O)[C@H](Cc2ccccc2)NC1=O [RB-0002946] (cyclo([3Pal][dW]KTF[NMeC](DOTA(Lu)NH(CH2)6NHCOCH2))),10 to 33.3 nM
6,C[C@@H](O)[C@@H]1NC(=O)[C@H](CCCCN)NC(=O)[C@@H](Cc2c[nH]c3ccccc23)NC(=O)[C@H](Cc2ccncc2)NC(=O)[C@H](CSCC(=O)NCCCCCCNC(=O)CN2CCN3CCN4CCN(CC2)CC(=O)[O][Lu]([O]C(=O)C3)[O]C(=O)C4)N(C)C(=O)[C@H](Cc2ccccc2)NC1=O [RB-0002947] (cyclo([4Pal][dW]KTF[NMeC](DOTA(Lu)NH(CH2)6NHCOCH2))),3.33 to 10 nM
7,C[C@@H](O)[C@@H]1NC(=O)[C@H](CCCCN)NC(=O)[C@@H](Cc2c[nH]c3ccccc23)NC(=O)[C@H](Cc2cccnc2)NC(=O)[C@H](CCSCC(=O)NCCCCCCNC(=O)CN2CCN3CCN4CCN(CC2)CC(=O)[O][Lu]([O]C(=O)C3)[O]C(=O)C4)N(C)C(=O)[C@H](Cc2ccccc2)NC1=O [RB-0003000] (cyclo([3Pal][dW]KTF[NMehCys](DOTA(Lu)NH(CH2)6NHCOCH2))),< 1 nM
8,C[C@@H](O)[C@@H]1NC(=O)[C@H](CCCCN)NC(=O)[C@@H](Cc2c[nH]c3ccccc23)NC(=O)[C@H](Cc2ccncc2)NC(=O)[C@H](CCSCC(=O)NCCCCCCNC(=O)CN2CCN3CCN4CCN(CC2)CC(=O)[O][Lu]([O]C(=O)C3)[O]C(=O)C4)N(C)C(=O)[C@H](Cc2ccccc2)NC1=O [RB-0003002] (cyclo([4Pal][dW]KTF[NMehCys](DOTA(Lu)NH(CH2)6NHCOCH2))),< 1 nM
9,CCN(C)CC(=O)[O][Lu]1[O]C(=O)CN(C)CCN(CCN(CC)CC(=O)NCCCCCC(=O)NCCCCC[C@H]2C(=O)N[C@@H](Cc3ccc(O)cc3)C(=O)N[C@H](Cc3c[nH]c4ccccc34)C(=O)N[C@@H](CCCCN)C(=O)N[C@@H]([C@@H](C)O)C(=O)N[C@@H](Cc3ccccc3)C(=O)N2C)CC(=O)[O]1 [RB-0003057],< 1 nM
10,C[C@@H](O)[C@@H]1NC(=O)[C@H](CCCCN)NC(=O)[C@@H](Cc2c[nH]c3ccccc23)NC(=O)[C@H]([C@@H](C)c2ccccc2)NC(=O)[C@H](CCSCC(=O)NCCCCCCNC(=O)CN2CCN3CCN4CCN(CC2)CC(=O)[O][Lu]([O]C(=O)C3)[O]C(=O)C4)N(C)C(=O)[C@H](Cc2ccccc2)NC1=O [RB-0003136] (cyclo(F[NMehCys](DOTA(Lu)NH(CH2)6NHCOCH2)[X4][dW]KT)),1 to 3.33 nM

# Same assay, conditions: read-out: SSTR2 Ki
row,Ki,SMILES
1,1 to 3.33 nM,"CC(=O)NCCCC[C@H]1C(=O)N[C@@H](Cc2ccc(O)cc2)C(=O)N[C@H](Cc2c[nH]c3ccccc23)C(=O)N[C@@H](CCCCN)C(=O)N[C@@H](C(C)C)C(=O)N[C@@H](Cc2ccccc2)C(=O)N1C [RB-0002329] (HELM PEPTIDE1{F.[CN([C@@H](CCCCN[*:3])C(=O)[*:2])[*:1]].Y.[dW].K.V}|PEPTIDE2{[ac]}$PEPTIDE1,PEPTIDE2,2:R3-1:R2|PEPTIDE1,PEPTIDE1,1:R1-6:R2$$$V2.0)"
2,3.33 to 10 nM,"CC(=O)NCCCC[C@@H]1C(=O)N[C@@H](Cc2ccc(O)cc2)C(=O)N[C@H](Cc2c[nH]c3ccccc23)C(=O)N[C@@H](CCCCN)C(=O)N[C@@H](C(C)C)C(=O)N[C@@H](Cc2ccccc2)C(=O)N1C [RB-0002593] (HELM PEPTIDE1{F.[CN([C@H](CCCCN[*:3])C(=O)[*:2])[*:1]].Y.[dW].K.V}|PEPTIDE2{[ac]}$PEPTIDE1,PEPTIDE2,2:R3-1:R2|PEPTIDE1,PEPTIDE1,1:R1-6:R2$$$V2.0)"
3,< 1 nM,C[C@@H](O)[C@@H]1NC(=O)[C@H](CCCCN)NC(=O)[C@@H](Cc2c[nH]c3ccccc23)NC(=O)[C@H](Cc2ccc(O)cc2)NC(=O)[C@H](C)N(C)C(=O)[C@H](Cc2ccccc2)NC1=O [RB-0002594]
4,< 1 nM,CC(C)[C@@H]1NC(=O)[C@H](CCCCN)NC(=O)[C@@H](Cc2c[nH]c3ccccc23)NC(=O)[C@H](Cc2ccc(O)c(O)c2)NC(=O)[C@H](C)N(C)C(=O)[C@H](Cc2ccccc2)NC1=O [RB-0002595]
5,< 1 nM,"CC(C)[C@@H]1NC(=O)[C@H](CCCCN)NC(=O)[C@@H](Cc2c[nH]c3ccccc23)NC(=O)[C@H](C(c2ccccc2)c2ccccc2)NC(=O)[C@H](C)N(C)C(=O)[C@H](Cc2ccccc2)NC1=O [RB-0002596] (HELM PEPTIDE1{[O=C([C@@H](N[*:1])C(c1ccccc1)c1ccccc1)[*:2]].[dW].K.V.F.[meA]}$PEPTIDE1,PEPTIDE1,1:R1-6:R2$$$V2.0)"
6,1 to 3.33 nM,CC(C)[C@@H]1NC(=O)[C@H](CCCCN)NC(=O)[C@@H](Cc2c[nH]c3ccccc23)NC(=O)[C@H](Cc2ccc(NC(=O)C3CC(=O)NC(=O)N3)cc2)NC(=O)[C@H](C)N(C)C(=O)[C@H](Cc2ccccc2)NC1=O (stereo partly drawn) [RB-0002597] (cyclo(F[NMeA][Phe(4-NH2)](ξDihydroorotoyl)[dW]KV))

row,SMILES,Ki
1,"CC(C)[C@@H]1NC(=O)[C@H](CCCCN)NC(=O)[C@@H](Cc2ccc(NC(N)=O)cc2)NC(=O)[C@H](Cc2ccc(O)cc2)NC(=O)[C@H](C)N(C)C(=O)[C@H](Cc2ccccc2)NC1=O [RB-0002328] (HELM PEPTIDE1{F.[meA].Y.[NC(=O)Nc1ccc(C[C@@H](N[*:1])C(=O)[*:2])cc1].K.V}$PEPTIDE1,PEPTIDE1,1:R1-6:R2$$$V2.0)",1 to 3.33 nM

# Same assay, conditions: read-out: SSTR2 Ki; radioligand competition, [125I]-Tyr11-Somatostatin 0.1 nM, membrane extracts; Ki from IC50 by Cheng Prusoff
row,SMILES,Ki
1,"CC(C)[C@@H]1NC(=O)[C@H](CCCCN)NC(=O)[C@@H](Cc2c[nH]c3ccccc23)NC(=O)[C@H](Cc2ccc(O)cc2)NC(=O)[C@H](CCC(=O)NCCCCCCNC(=O)CN2CCN(CC(=O)O)CCN(CC(=O)O)CCN(CC(=O)O)CC2)N(C)C(=O)[C@H](Cc2ccccc2)NC1=O [RB-0002678] (HELM PEPTIDE1{F.[CN([C@@H](CCC(=O)[*:3])C(=O)[*:2])[*:1]].Y.[dW].K.V}|CHEM1{[O=C(O)CN1CCN(CC(=O)O)CCN(CC(=O)NCCCCCCN[*:1])CCN(CC(=O)O)CC1]}$PEPTIDE1,CHEM1,2:R3-1:R1|PEPTIDE1,PEPTIDE1,1:R1-6:R2$$$V2.0)",3.33 to 10 nM
2,C[C@@H](O)[C@@H]1NC(=O)[C@H](CCCCN)NC(=O)[C@@H](Cc2c[nH]c3ccccc23)NC(=O)[C@H](Cc2ccc(O)cc2)NC(=O)[C@H](CCCCC(=O)NCCCCCCNC(=O)CN2CCN(CC(=O)O)CCN(CC(=O)O)CCN(CC(=O)O)CC2)N(C)C(=O)[C@H](Cc2ccccc2)NC1=O [RB-0003055],< 1 nM
